From ChEMBL document CHEMBL1201862, “PubChem BioAssay data set” (2004)
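Cells were grown in 96-well plates and exposed to each compound for 48 hours at five concentrations; endpoints were interpolated linearly between bracketing concentrations, or set to the highest concentration if not reached. GI50 is the concentration that inhibits growth by half.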 Active and inactive are the calls of the source. Rule as the data show it: active = GI50 up to about 1.1 µM and inactive = higher.

Legend:
Assay in all cases: DTP human tumour cell line panel, 48 h
SF-539 = test system: SF-539
OVCAR-4 = test system: OVCAR-4
HT-29 = test system: HT-29
NCI-H460 = test system: NCI-H460
U-251 = test system: U-251
UO-31 = test system: UO-31
RXF 393 = test system: RXF 393
SNB-75 = test system: SNB-75
OVCAR-5 = test system: OVCAR-5
UACC-62 = test system: UACC-62
786-0 = test system: 786-0
HCT-15 = test system: HCT-15
EKVX = test system: EKVX
M14 = test system: M14
SF-268 = test system: SF-268
A498 = test system: A498
SR = test system: SR

Row | Structure (SMILES) | GI50 (SF-539) | GI50 (OVCAR-4) | GI50 (HT-29) | GI50 (NCI-H460) | GI50 (U-251) | GI50 (UO-31) | GI50 (RXF 393) | GI50 (SNB-75) | GI50 (OVCAR-5) | GI50 (UACC-62) | GI50 (786-0) | GI50 (HCT-15) | GI50 (EKVX) | GI50 (M14) | GI50 (SF-268) | GI50 (A498) | GI50 (SR)
1 | COc1ccc(C(=O)/C(=N/Nc2ccccc2)c2ccc(OC)cc2)cc1 | > 100 µM (inactive) | > 100 µM (inactive) | 18.3 µM (inactive) | > 100 µM (inactive) | > 100 µM (inactive) | > 100 µM (inactive) | 31.9 µM (inactive) | 27 µM (inactive) | > 100 µM (inactive) | 13.3 µM (inactive) | > 100 µM (inactive) | 8.55 µM | > 100 µM (inactive) |  |  |  | 
2 | O=[N+]([O-])C(/C=N/Nc1ccccc1)/C=N/Nc1ccccc1 | > 100 µM (inactive) | > 100 µM (inactive) | > 100 µM (inactive) | > 100 µM (inactive) | > 100 µM (inactive) | > 100 µM (inactive) | > 100 µM (inactive) | > 100 µM (inactive) | > 100 µM (inactive) | > 100 µM (inactive) | > 100 µM (inactive) | > 100 µM | > 100 µM (inactive) | > 100 µM (inactive) | > 100 µM (inactive) | > 100 µM (inactive) | 
3 | COc1ccc(CNC2=C(NC(C)=O)C(=O)c3ccccc3C2=O)cc1 | 7.43 µM (inactive) | 8.13 µM (inactive) | 29.4 µM (inactive) | 15.2 µM (inactive) | 12.4 µM (inactive) | 9.53 µM (inactive) | 6.41 µM (inactive) | 12.8 µM (inactive) |  | 7.73 µM (inactive) | 24.4 µM (inactive) | 13.1 µM | 14.7 µM (inactive) | 19.4 µM (inactive) | 18.9 µM (inactive) |  | 14 µM (inactive)
4 | COc1ccc(C2C(Cl)C(=O)N2n2cnc3ccccc3c2=O)cc1OC (centres undefined) |  | > 100 µM (inactive) | > 100 µM (inactive) | 81.1 µM (inactive) | > 100 µM (inactive) | 22.3 µM (inactive) | 96.8 µM (inactive) | 21.5 µM (inactive) | > 100 µM (inactive) | 74.1 µM (inactive) | > 100 µM (inactive) | > 100 µM | > 100 µM (inactive) | > 100 µM (inactive) | 85.7 µM (inactive) |  | 38.7 µM (inactive)
5 | COc1cc2c(cc1OC)c1c(OC)c(OC)cc3c1c1c2sc(=S)n1CC3 | 48.3 µM (inactive) | 55 µM (inactive) | 50.2 µM (inactive) | 42.7 µM (inactive) | 66.5 µM (inactive) | > 100 µM (inactive) | 89.1 µM (inactive) | 74.6 µM (inactive) | > 100 µM (inactive) | 24.4 µM (inactive) | 18.1 µM (inactive) | 42.3 µM | > 100 µM (inactive) | 18.4 µM (inactive) | 28.7 µM (inactive) | > 100 µM (inactive) | 
6 | CC(=O)OC1COC(N2C(=O)/C(=N\Nc3ccc([N+](=O)[O-])cc3)c3cc(Br)c([N+](=O)[O-])cc32)C(OC(C)=O)C1OC(C)=O (centres undefined) | 68.2 µM (inactive) | 32.9 µM (inactive) | 74.5 µM (inactive) | > 100 µM (inactive) | 36.8 µM (inactive) |  | 15.5 µM (inactive) |  | > 100 µM (inactive) | 15.3 µM (inactive) | 42 µM (inactive) | 33 µM | 62.7 µM (inactive) | 55.8 µM (inactive) | 26.4 µM (inactive) |  | 98.9 µM (inactive)
7 | CC(=O)Oc1cc2c(cc1OC(C)=O)C1(C)CCC2(C)c2cc(OC(C)=O)c(OC(C)=O)cc21 |  | 14.4 µM (inactive) | 4.75 µM (inactive) | 20.8 µM (inactive) |  | 23.4 µM (inactive) | 40.7 µM (inactive) | 4.92 µM (inactive) | 28.4 µM (inactive) | 13.2 µM (inactive) | 15 µM (inactive) | 6.92 µM | 35.8 µM (inactive) | 18.3 µM (inactive) | 19.2 µM (inactive) |  | 
8 | CC(C)N1CN(C(C(=O)N[C@@H]2C(=O)N3C2SC(C)(C)C3C(=O)O)c2ccccc2)CSC1=S (some centres undefined) | > 100 µM (inactive) | > 100 µM (inactive) | 96.6 µM (inactive) | 43.7 µM (inactive) | > 100 µM (inactive) | > 100 µM (inactive) |  | > 100 µM (inactive) | > 100 µM (inactive) | > 100 µM (inactive) | > 100 µM (inactive) | 22.1 µM | > 100 µM (inactive) | > 100 µM (inactive) | > 100 µM (inactive) | > 100 µM (inactive) | 
9 | CN(N=O)C(=O)N(N)CCCCC(NC(=O)OCc1ccccc1)C(=O)OCc1ccccc1 (centres undefined) | 16 µM (inactive) | 33.7 µM (inactive) | 79.6 µM (inactive) | 32.5 µM (inactive) | 38.9 µM (inactive) | 18.7 µM (inactive) | 12.9 µM (inactive) | 20.6 µM (inactive) | > 100 µM (inactive) | 18.5 µM (inactive) | 18.5 µM (inactive) | 90.4 µM | > 100 µM (inactive) | 23 µM (inactive) |  | 69.7 µM (inactive) | 
10 | OC(c1ccccc1)(c1ccccc1)c1cccnc1 | > 100 µM (inactive) | > 100 µM (inactive) | > 100 µM (inactive) | > 100 µM (inactive) | > 100 µM (inactive) | > 100 µM (inactive) |  | 86.1 µM (inactive) | > 100 µM (inactive) | > 100 µM (inactive) | > 100 µM (inactive) | > 100 µM | > 100 µM (inactive) | > 100 µM (inactive) | > 100 µM (inactive) | > 100 µM (inactive) | 
11 | O=C1CCCC1NC(=O)C(F)(F)F (centres undefined) | > 100 µM (inactive) | > 100 µM (inactive) | > 100 µM (inactive) | > 100 µM (inactive) | > 100 µM (inactive) | > 100 µM (inactive) | > 100 µM (inactive) | > 100 µM (inactive) | > 100 µM (inactive) | > 100 µM (inactive) | > 100 µM (inactive) |  | > 100 µM (inactive) | > 100 µM (inactive) | > 100 µM (inactive) | > 100 µM (inactive) | 
12 | O=C(O)CN(c1ccccc1)S(=O)(=O)c1ccccc1[N+](=O)[O-] | > 100 µM (inactive) | > 100 µM (inactive) | > 100 µM (inactive) | > 100 µM (inactive) | > 100 µM (inactive) | > 100 µM (inactive) | > 100 µM (inactive) | > 100 µM (inactive) | > 100 µM (inactive) | > 100 µM (inactive) | > 100 µM (inactive) | > 100 µM | > 100 µM (inactive) | > 100 µM (inactive) | > 100 µM (inactive) | > 100 µM (inactive) | 
13 | COc1ccc(NC(=O)c2cc(OC)c(OC)c(OC)c2)cc1 | 48 µM (inactive) | > 100 µM (inactive) | 36.8 µM (inactive) | 35.9 µM (inactive) | 39.6 µM (inactive) | 64.1 µM (inactive) | 31.3 µM (inactive) | 42.2 µM (inactive) | > 100 µM (inactive) | 31 µM (inactive) | > 81.8 µM (inactive) | 33.4 µM | > 69.2 µM (inactive) | 88.1 µM (inactive) | > 56.4 µM (inactive) | 43.6 µM (inactive) | 
